According to patent US20240316022A1 (TYRA BIOSCIENCES, INC., priority 2021, published 2024):

What was measured:
Assay in all cases: Kinase binding assay (kinase-tagged T7 phage, qPCR), Kd
FGFR2 = molecular target: T1, FGFR2 (Homo sapiens, UniProt P21802); details: read-out: FGFR2 (Kd nM)
T1 construct: made in house; host or cells: E. coli derived from BL21, infected with T7 phage

FGFR1 = molecular target: T2, FGFR1 (Homo sapiens, UniProt P11362); details: read-out: FGFR1 (Kd nM)
T2 construct: made in house; host or cells: E. coli derived from BL21, infected with T7 phage
T2 sequence (P11362 22-822): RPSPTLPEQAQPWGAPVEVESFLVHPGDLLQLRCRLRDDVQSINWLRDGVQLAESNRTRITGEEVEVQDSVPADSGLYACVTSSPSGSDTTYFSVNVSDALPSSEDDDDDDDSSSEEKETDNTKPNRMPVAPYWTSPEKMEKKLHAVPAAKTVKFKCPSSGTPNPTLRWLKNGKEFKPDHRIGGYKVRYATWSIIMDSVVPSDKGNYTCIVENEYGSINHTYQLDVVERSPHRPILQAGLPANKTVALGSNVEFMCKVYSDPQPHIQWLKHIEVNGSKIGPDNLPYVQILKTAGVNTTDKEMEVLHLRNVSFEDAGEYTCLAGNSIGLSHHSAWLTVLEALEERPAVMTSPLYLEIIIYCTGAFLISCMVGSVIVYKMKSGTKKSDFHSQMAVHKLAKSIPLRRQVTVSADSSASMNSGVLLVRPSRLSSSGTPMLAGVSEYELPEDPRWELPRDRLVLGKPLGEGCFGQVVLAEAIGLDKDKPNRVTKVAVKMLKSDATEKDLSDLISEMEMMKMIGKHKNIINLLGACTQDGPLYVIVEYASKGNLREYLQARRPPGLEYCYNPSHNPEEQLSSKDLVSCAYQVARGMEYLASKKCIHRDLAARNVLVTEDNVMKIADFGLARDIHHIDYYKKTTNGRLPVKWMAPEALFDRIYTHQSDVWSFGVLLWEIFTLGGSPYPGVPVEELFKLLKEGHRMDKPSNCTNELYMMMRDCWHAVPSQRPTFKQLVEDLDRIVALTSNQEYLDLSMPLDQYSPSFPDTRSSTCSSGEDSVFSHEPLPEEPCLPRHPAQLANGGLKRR

FGFR4 = molecular target: T3, FGFR4 (Homo sapiens, UniProt P22455); details: read-out: FGFR4 (Kd nM)
T3 construct: made in house; host or cells: E. coli derived from BL21, infected with T7 phage
T3 sequence (P22455 22-802): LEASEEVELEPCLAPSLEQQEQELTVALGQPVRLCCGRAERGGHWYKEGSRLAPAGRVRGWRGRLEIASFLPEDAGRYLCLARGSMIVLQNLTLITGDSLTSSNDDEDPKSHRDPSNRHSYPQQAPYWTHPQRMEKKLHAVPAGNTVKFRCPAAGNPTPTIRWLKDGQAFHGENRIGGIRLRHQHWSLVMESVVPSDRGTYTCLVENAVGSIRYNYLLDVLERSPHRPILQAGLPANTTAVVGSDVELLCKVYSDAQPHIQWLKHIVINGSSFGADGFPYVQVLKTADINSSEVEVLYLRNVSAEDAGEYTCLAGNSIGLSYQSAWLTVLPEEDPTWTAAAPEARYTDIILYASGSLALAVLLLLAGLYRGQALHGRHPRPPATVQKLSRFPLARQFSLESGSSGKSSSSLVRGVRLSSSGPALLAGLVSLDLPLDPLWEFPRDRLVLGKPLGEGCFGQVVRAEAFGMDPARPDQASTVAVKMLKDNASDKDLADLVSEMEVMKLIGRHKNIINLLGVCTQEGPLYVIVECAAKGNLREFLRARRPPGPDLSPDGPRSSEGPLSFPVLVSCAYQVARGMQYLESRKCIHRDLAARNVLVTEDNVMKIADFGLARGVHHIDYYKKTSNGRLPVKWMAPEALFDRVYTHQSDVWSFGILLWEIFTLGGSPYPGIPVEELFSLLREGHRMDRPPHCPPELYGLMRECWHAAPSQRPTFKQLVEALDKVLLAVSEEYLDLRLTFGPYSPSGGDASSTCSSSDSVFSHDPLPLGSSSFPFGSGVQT

FGFR3 = molecular target: T4, FGFR3 (Homo sapiens, UniProt P22607); details: read-out: FGFR3 (Kd nM)
T4 construct: made in house; host or cells: E. coli derived from BL21, infected with T7 phage
T4 sequence (P22607 23-806): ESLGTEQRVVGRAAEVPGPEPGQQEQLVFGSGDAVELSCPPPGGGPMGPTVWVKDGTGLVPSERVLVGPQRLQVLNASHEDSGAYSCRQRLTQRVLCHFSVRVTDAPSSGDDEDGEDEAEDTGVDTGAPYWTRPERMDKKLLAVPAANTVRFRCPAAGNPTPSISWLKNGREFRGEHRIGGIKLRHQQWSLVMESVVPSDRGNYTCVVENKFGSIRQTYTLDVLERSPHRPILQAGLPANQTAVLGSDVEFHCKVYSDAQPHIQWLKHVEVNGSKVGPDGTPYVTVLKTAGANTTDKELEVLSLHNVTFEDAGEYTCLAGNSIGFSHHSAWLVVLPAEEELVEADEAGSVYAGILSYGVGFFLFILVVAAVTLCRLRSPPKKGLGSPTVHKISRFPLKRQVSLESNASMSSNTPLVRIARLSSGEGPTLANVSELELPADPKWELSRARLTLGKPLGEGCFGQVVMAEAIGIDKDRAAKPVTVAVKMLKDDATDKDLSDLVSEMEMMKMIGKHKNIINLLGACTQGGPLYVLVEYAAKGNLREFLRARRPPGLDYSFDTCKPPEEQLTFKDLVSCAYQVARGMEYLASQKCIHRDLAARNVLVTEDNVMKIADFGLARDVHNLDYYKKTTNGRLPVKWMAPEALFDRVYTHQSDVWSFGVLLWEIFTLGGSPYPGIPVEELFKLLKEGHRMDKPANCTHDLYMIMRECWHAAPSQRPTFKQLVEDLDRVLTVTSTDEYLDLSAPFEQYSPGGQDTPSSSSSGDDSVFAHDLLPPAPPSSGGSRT

T1 sequence (P21802 22-821): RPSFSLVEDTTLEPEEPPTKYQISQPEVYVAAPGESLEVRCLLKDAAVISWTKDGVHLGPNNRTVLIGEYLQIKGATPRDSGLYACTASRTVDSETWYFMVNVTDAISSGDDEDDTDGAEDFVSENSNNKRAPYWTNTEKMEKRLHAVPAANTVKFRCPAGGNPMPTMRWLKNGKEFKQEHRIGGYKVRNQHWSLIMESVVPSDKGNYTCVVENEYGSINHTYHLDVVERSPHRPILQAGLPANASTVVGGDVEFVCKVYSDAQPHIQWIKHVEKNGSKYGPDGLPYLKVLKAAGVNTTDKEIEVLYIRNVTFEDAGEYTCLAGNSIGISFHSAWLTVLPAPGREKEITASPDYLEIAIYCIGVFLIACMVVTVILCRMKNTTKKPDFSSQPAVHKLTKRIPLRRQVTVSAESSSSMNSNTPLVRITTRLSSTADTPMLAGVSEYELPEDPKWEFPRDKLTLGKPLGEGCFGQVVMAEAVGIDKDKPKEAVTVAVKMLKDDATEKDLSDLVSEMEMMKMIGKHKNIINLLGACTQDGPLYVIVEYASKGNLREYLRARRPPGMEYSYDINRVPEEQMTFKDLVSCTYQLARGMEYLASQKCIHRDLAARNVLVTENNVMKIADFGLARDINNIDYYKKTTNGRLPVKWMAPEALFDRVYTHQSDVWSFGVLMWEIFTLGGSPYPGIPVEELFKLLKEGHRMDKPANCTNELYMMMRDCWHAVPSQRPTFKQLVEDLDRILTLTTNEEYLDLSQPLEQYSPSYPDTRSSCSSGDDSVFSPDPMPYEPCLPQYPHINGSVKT

Structure (SMILES)	Kd (FGFR2) [nM]	Kd (FGFR1) [nM]	Kd (FGFR4) [nM]	Kd (FGFR3) [nM]
C[C@@H](Oc1ccc2[nH]nc(-c3cnc(N[C@@H]4CCOC4)c(C#N)c3)c2c1)c1c(Cl)cncc1Cl [Example 130, 5-(5-((R)-1-(3,5-dichloropyridin-4-yl)ethoxy)-1H-indazol-3-yl)-2-(((R)-tetrahydrofuran-3-yl)amino)nicotinonitrile]	0.1 to 100	0.1 to 100	0.1 to 100	0.1 to 100
COc1cc2[nH]nc(-c3cnc(N(C)C)c(C#N)c3)c2cc1O[C@H](C)c1c(Cl)cncc1Cl [Example 131, 5-[5-[(1R)-1-(3,5-dichloro-4-pyridyl)ethoxy]-6-methoxy-1H-indazol-3-yl]-2-(dimethylamino)pyridine-3-carbonitrile]	0.1 to 100	0.1 to 100	0.1 to 100	0.1 to 100
C[C@@H](Oc1ccc2[nH]nc(-c3cnc(NC4CCOCC4)c(C#N)c3)c2c1)c1c(Cl)cncc1Cl [Example 132, (R)-5-(5-(1-(3,5-dichloropyridin-4-yl)ethoxy)-1H-indazol-3-yl)-2-((tetrahydro-2H-pyran-4-yl)amino)nicotinonitrile]	0.1 to 100	0.1 to 100	0.1 to 100	0.1 to 100
C[C@@H](Oc1ccc2[nH]nc(-c3cnc(O[C@H]4CCOC4)c(C#N)c3)c2c1)c1c(Cl)cncc1Cl [Example 133, 5-(5-((R)-1-(3,5-dichloropyridin-4-yl)ethoxy)-1H-indazol-3-yl)-2-(((S)-tetrahydrofuran-3-yl)oxy)nicotinonitrile]	0.1 to 100	100 to 250	0.1 to 100	0.1 to 100
C[C@@H](Oc1ccc2[nH]nc(-c3cnc(O[C@@H]4CCOC4)c(C#N)c3)c2c1)c1c(Cl)cncc1Cl [Example 134, 5-(5-((R)-1-(3,5-dichloropyridin-4-yl)ethoxy)-1H-indazol-3-yl)-2-(((R)-tetrahydrofuran-3-yl)oxy)nicotinonitrile]	0.1 to 100	100 to 250	0.1 to 100	0.1 to 100
COc1cc2[nH]nc(-c3cnc(O[C@@H]4CCOC4)c(C#N)c3)c2cc1O[C@H](C)c1c(Cl)cncc1Cl [Example 136, 5-(5-((R)-1-(3,5-dichloropyridin-4-yl)ethoxy)-6-methoxy-1H-indazol-3-yl)-2-(((R)-tetrahydrofuran-3-yl)oxy)nicotinonitrile]	0.1 to 100	0.1 to 100	0.1 to 100	0.1 to 100
C[C@@H](Oc1ccc2[nH]nc(-c3ccc(OC4CC5(COC5)C4)nc3)c2c1)c1c(Cl)cncc1Cl [Example 161, (R)-3-(6-(2-oxaspiro[3.3]heptan-6-yloxy)pyridin-3-yl)-5-(1-(3,5-dichloropyridin-4-yl)ethoxy)-1H-indazole]	0.1 to 100	0.1 to 100	0.1 to 100	0.1 to 100
Cc1ncc(Cl)c([C@@H](C)Oc2ccc3[nH]nc(-c4ccc5c(c4)COC4(CCN(CC(F)(F)F)CC4)O5)c3c2)c1Cl [Example 167, 6-[5-[(1R)-1-(3,5-dichloro-2-methyl-4-pyridyl)ethoxy]-1H-indazol-3-yl]-1′-(2,2,2-trifluoroethyl)spiro[4H-1,3-benzodioxine-2,4′-piperidine]]	100 to 250	100 to 250	0.1 to 100	0.1 to 100
C[C@@H](Oc1ccc2[nH]nc(-c3ccc4c(c3)COC3(CCN(CC(F)F)CC3)O4)c2c1)c1c(Cl)cncc1Cl [Example 168, 6-[5-[(1R)-1-(3,5-dichloro-4-pyridyl)ethoxy]-1H-indazol-3-yl]-1′-(2,2-difluoroethyl)spiro[4H-1,3-benzodioxine-2,4′-piperidine]]	0.1 to 100	0.1 to 100	0.1 to 100	0.1 to 100

The next lines start with the values.

Kd (FGFR2) [nM]	Kd (FGFR1) [nM]	Kd (FGFR4) [nM]	Kd (FGFR3) [nM]	Structure (SMILES)
0.1 to 100	0.1 to 100	0.1 to 100	0.1 to 100	Cc1cc2[nH]nc(-c3cnc(O[C@@H]4CCOC4)c(C#N)c3)c2cc1O[C@H](C)c1c(Cl)cncc1Cl [Example 135, 5-(5-((R)-1-(3,5-dichloropyridin-4-yl)ethoxy)-6-methyl-1H-indazol-3-yl)-2-(((R)-tetrahydrofuran-3-yl)oxy)nicotinonitrile]
250 to 1000	100 to 250	0.1 to 100	0.1 to 100	C[C@@H](Oc1cc2c(-c3cnc(O[C@@H]4CCOC4)c(C#N)c3)n[nH]c2cc1F)c1c(Cl)cncc1Cl [Example 138, 5-(5-((R)-1-(3,5-dichloropyridin-4-yl)ethoxy)-6-fluoro-1H-indazol-3-yl)-2-(((R)-tetrahydrofuran-3-yl)oxy)nicotinonitrile]
> 1000	> 1000	> 1000	> 1000	C[C@@H](Oc1ccc2[nH]nc(-c3cnc4c(c3)N(CC(F)(F)F)CCO4)c2c1)c1c(Cl)cncc1Cl [Example 139, (R)-7-(5-(1-(3,5-dichloropyridin-4-yl)ethoxy)-1H-indazol-3-yl)-1-(2,2,2-trifluoroethyl)-2,3-dihydro-1H-pyrido[2,3-b][1,4]oxazine 2,2,2-trifluoroacetate]
250 to 1000	250 to 1000	0.1 to 100	100 to 250	COc1cc2[nH]nc(-c3cnc4c(c3)N(S(C)(=O)=O)CCO4)c2cc1O[C@H](C)c1c(Cl)cncc1Cl [Example 140, 7-[5-[(1R)-1-(3,5-dichloro-4-pyridyl)ethoxy]-6-methoxy-1H-indazol-3-yl]-1-methylsulfonyl-2,3-dihydropyrido[2,3-b][1,4]oxazine]
> 1000	> 1000	0.1 to 100	> 1000	CC(C)N1CCOc2ncc(-c3n[nH]c4ccc(O[C@H](C)c5c(Cl)cncc5Cl)cc34)cc21 [Example 141, (R)-7-(5-(1-(3,5-dichloropyridin-4-yl)ethoxy)-1H-indazol-3-yl)-1-isopropyl-2,3-dihydro-1H-pyrido[2,3-b][1,4]oxazine]
> 1000	> 1000	250 to 1000	> 1000	C[C@@H](Oc1ccc2[nH]nc(-c3cnc4c(c3)N(CC(F)F)CCO4)c2c1)c1c(Cl)cncc1Cl [Example 142, (R)-7-(5-(1-(3,5-dichloropyridin-4-yl)ethoxy)-1H-indazol-3-yl)-1-(2,2-difluoroethyl)-2,3-dihydro-1H-pyrido[2,3-b][1,4]oxazine]
> 1000	> 1000	100 to 250	100 to 250	Cc1ncc(Cl)c([C@@H](C)Oc2cc3c(-c4cnc5c(c4)N(S(C)(=O)=O)CCO5)n[nH]c3cc2Cl)c1Cl [Example 143, 7-[6-chloro-5-[(1R)-1-(3,5-dichloro-2-methyl-4-pyridyl)ethoxy]-1H-indazol-3-yl]-1-methylsulfonyl-2,3-dihydropyrido[2,3-b][1,4]oxazine]
> 1000	> 1000	0.1 to 100	> 1000	CCS(=O)(=O)N1CCOc2ncc(-c3n[nH]c4ccc(O[C@H](C)c5c(Cl)cncc5Cl)cc34)cc21 [Example 144]
> 1000	> 1000	0.1 to 100	> 1000	C[C@@H](Oc1cc2c(-c3cnc4c(c3)N(S(C)(=O)=O)CCO4)n[nH]c2cc1Cl)c1c(Cl)cncc1Cl [Example 145, 7-[6-chloro-5-[(1R)-1-(3,5-dichloro-4-pyridyl)ethoxy]-1H-indazol-3-yl]-1-methylsulfonyl-2,3-dihydropyrido[2,3-b][1,4]oxazine]
0.1 to 100	0.1 to 100	0.1 to 100	0.1 to 100	COc1cc2[nH]nc(-c3cnc4c(c3)NCCO4)c2cc1O[C@H](C)c1c(Cl)cncc1Cl [Example 146]
0.1 to 100	0.1 to 100	0.1 to 100	0.1 to 100	COc1cc2[nH]nc(-c3ccc(N(C)C)nc3)c2cc1O[C@H](C)c1c(Cl)cnc(C)c1Cl [Example 149, 5-[5-[(1R)-1-(3,5-dichloro-2-methyl-4-pyridyl)ethoxy]-6-methoxy-1H-indazol-3-yl]-N,N-dimethyl-pyridin-2-amine]
250 to 1000	250 to 1000	0.1 to 100	0.1 to 100	Cc1cc(-c2n[nH]c3ccc(O[C@H](C)c4c(Cl)cnc(C)c4Cl)cc23)cnc1O[C@H]1CCOC1 [Example 154, 5-[(1R)-1-(3,5-dichloro-2-methyl-4-pyridyl)ethoxy]-3-[5-methyl-6-[(3S)-tetrahydrofuran-3-yl]oxy-3-pyridyl]-1H-indazole]
